Experimental data from patent publication US9127015B2, “Tricyclopyrazole derivatives” (NERVIANO MEDICAL SCIENCES S.R.L., priority 2009, dated 2015).
Values joined by “and” are separate entries in the source; they are usually repeats but may differ in a detail not shown here. Identical values can stand only once.

How the values were obtained:
Assay in all cases: Kinase inhibition assay, IC50 (Table A)
Assay type in all cases: biochemical
[1] = target: T1, ZAP70 (Homo sapiens, UniProt P43403); conditions: Enzyme ZAP70
T1 sequence (P43403 1-619): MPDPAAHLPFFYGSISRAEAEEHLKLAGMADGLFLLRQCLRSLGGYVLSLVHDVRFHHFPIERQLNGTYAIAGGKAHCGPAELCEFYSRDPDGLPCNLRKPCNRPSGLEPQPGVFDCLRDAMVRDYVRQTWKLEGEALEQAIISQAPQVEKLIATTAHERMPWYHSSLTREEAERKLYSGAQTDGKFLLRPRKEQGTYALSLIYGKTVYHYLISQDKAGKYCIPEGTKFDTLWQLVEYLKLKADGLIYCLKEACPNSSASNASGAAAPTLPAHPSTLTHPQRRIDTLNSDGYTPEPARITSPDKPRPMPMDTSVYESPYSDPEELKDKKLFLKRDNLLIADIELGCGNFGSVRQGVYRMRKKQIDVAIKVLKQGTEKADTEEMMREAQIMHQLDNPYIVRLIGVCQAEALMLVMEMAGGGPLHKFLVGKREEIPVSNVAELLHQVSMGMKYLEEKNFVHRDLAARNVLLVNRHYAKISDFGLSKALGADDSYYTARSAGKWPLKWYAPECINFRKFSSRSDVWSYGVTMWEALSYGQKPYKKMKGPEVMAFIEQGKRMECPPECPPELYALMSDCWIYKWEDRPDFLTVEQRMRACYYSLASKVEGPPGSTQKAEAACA
Description: (§1) The inhibiting activity of putative kinase inhibitors and the potency of selected compounds is determined through a method of assay based on the use of the Kinase-Glo® Luminescent Kinase Assay (commercially available from Promega corporation and described in Koresawa, M. and Okabe, T. (2004) High-throughput screening with quantitation of ATP consumption: A universal non-radioisotope, homogeneous assay for protein kinase. Assay Drug Dev. Technol. 2, 153-60).
(§2) The inhibitory activity of putative kinase inhibitors and the potency of selected compounds were also determined using a trans-phosphorylation assay.
(§3) Specific peptide or protein substrates are trans-phosphorylated by their specific ser-thr or tyr kinase in the presence of ATP traced with ^33P-γ-ATP, and in the presence of their own optimal buffer and cofactors. At the end of the phosphorylation reaction, more than 98% unlabeled ATP and radioactive ATP is captured by an excess of the ion exchange dowex resin; the resin then settles down to the bottom of the reaction plate by gravity. Supernatant is subsequently withdrawn and transferred into a counting plate, then evaluated by β-counting.
(§4) Reaction conditions are target (enzyme) dependent and thus undergo individual adaptations. Also the buffer conditions may vary depending on the kinase of interest. The assay can be used with virtually any kinase and substrate combination and is suitable for all type of protein kinases, such as ABL, ACK1, AKT1, ALK, AUR1, AUR2, BRK, BUB1, CDC7/DBF4, CDK21CYCA, CHK1, CK2, EEF2K, EGFR1, EphA2, EphB4, ERK2, FAK, FGFR1, FLT3, GSK3beta, Haspin, IGFR1, IKK2, IR, JAK1, JAK2, JAK3, KIT, LCK, LYN, MAPKAPK2, MELK, MET, MNK2, MPSI, MST4, NEK6, NIM1, P38alpha, PAK-4, PDGFR, PDK1, PERK, PIM1, PIM2, PKAalpha, PKCbeta, PLK1, RET, ROS1, SULU1, Syk, TLK2, TRKA, TYK, VEGFR2, VEGFR3, ZAP70.

[2] = target: Syk (Homo sapiens, UniProt P43405); conditions: Enzyme Syk
Description: as §1, §2, §3, §4

[3] = target: BRK (Homo sapiens, UniProt Q13882); conditions: Enzyme BRK
Description: as §1, §2, §3, §4

[4] = target: LCK (Homo sapiens, UniProt P06239); conditions: Enzyme LCK
Description: as §1, §2, §3, §4

[5] = target: KIT (Homo sapiens, UniProt P10721); conditions: Enzyme KIT
Description: as §1, §2, §3, §4

[6] = target: FGFR1 (Homo sapiens, UniProt P11362); conditions: Enzyme FGFR1
Description: as §1, §2, §3, §4

[7] = target: EGFR1 (Homo sapiens, UniProt P00533); conditions: Enzyme EGFR1
Description: as §1, §2, §3, §4

[8] = target: ACK1 (Homo sapiens, UniProt Q07912); conditions: Enzyme ACK1
Description: as §1, §2, §3, §4

[9] = target: ABL (Homo sapiens, UniProt P00519); conditions: Enzyme ABL
Description: as §1, §2, §3, §4

[10] = target: ALK (Homo sapiens, UniProt Q9UM73); conditions: Enzyme ALK
Description: as §1
As example herein are reported the assay conditions used for testing the compounds of formula (I) against ALKtide YFF APCo kinase; • ATP concentration: 1 μM • Enzyme concentration: 100 nM • Reaction buffer: Hepes 50 mM pH 7.5, MgCl2 5 mM, MnCl2 1 mM, DTT 1 mM, Na3VO4 3 uM, 0.2 mg/ml BSA. • Assay procedure: add 5 ul compound of formula (I) (3×), add 5 μl ATP/S mix (3×) in buffer 1×; add 5 μl enzyme in buffer 2×+3×BSA; for the blank, add 5 μl buffer 2×+3×BSA without enzyme. After 90 minutes of incubation, add 15 μl/well of Kinase-Glo reagent. After 60-90 minutes of incubation to stabilize the luminescent signal, the plates are read on a ViuwLux instrument.
as §2, §3
Reaction conditions are target (enzyme) dependent and thus undergo individual adaptations. Also the buffer conditions may vary depending on the kinase of interest. […]

[11] = target: VEGFR3 (Homo sapiens, UniProt P35916); conditions: Enzyme VEGFR3
Description: as §1, §2, §3, §4

[12] = target: MELK (Homo sapiens, UniProt Q14680); conditions: Enzyme MELK
Description: as §1, §2, §3, §4

[13] = target: PKCbeta (Homo sapiens, UniProt P05771); conditions: Enzyme PKCbeta
Description: as §1, §2, §3, §4

[14] = target: LYN (Homo sapiens, UniProt P07948); conditions: Enzyme LYN
Description: as §1, §2, §3, §4

ABL, sequence (P00519 whole entry): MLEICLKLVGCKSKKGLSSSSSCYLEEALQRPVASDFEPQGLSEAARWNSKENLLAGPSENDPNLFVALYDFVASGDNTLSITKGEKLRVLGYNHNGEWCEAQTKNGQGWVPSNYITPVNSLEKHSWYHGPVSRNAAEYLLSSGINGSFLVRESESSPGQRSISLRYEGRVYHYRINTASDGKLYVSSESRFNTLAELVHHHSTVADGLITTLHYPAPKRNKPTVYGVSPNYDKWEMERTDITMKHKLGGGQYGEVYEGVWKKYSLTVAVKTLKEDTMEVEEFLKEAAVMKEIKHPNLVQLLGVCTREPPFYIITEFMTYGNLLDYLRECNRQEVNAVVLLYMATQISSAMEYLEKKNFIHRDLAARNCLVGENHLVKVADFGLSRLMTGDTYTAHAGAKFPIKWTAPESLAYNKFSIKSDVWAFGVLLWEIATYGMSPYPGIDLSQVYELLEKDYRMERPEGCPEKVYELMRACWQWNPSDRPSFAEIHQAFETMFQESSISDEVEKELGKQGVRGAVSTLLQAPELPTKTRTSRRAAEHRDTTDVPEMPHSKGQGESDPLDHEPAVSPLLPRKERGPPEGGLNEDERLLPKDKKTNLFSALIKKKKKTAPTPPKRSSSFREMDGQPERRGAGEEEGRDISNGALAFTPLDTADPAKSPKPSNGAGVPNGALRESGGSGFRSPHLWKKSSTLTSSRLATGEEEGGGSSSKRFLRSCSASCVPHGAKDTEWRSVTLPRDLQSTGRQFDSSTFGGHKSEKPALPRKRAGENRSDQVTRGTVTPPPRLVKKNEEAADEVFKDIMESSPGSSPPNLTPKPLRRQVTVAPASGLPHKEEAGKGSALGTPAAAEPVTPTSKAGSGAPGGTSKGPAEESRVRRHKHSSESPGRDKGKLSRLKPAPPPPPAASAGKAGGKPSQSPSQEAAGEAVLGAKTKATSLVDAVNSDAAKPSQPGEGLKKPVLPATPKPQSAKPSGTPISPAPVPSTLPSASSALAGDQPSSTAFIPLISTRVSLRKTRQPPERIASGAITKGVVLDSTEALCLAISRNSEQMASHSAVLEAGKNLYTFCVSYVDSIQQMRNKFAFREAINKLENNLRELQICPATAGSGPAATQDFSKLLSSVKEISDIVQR
LCK, sequence (P06239 whole entry): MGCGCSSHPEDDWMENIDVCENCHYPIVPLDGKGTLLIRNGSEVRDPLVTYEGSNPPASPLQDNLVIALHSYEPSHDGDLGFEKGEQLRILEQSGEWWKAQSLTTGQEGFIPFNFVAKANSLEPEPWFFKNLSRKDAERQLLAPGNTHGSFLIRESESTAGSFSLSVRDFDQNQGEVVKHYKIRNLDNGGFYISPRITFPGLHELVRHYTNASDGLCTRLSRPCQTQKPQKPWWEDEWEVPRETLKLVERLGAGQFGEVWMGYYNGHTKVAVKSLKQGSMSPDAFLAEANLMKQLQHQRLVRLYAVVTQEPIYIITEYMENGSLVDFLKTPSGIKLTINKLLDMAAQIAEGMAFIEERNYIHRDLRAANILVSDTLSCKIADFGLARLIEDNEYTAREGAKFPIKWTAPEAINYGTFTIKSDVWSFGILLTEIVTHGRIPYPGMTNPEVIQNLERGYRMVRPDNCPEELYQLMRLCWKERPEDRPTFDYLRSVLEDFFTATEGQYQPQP
BRK, sequence (Q13882 whole entry): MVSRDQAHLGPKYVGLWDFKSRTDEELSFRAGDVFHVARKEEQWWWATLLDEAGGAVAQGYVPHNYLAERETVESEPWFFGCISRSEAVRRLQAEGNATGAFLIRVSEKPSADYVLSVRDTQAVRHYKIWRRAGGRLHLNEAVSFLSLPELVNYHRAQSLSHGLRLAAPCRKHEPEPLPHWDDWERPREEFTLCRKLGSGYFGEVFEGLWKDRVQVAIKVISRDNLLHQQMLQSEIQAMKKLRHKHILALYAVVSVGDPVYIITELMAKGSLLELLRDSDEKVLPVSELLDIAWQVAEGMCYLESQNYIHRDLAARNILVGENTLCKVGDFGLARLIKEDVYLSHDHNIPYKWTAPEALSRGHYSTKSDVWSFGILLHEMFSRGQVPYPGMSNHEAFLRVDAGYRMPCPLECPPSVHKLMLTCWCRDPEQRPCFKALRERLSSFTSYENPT
ALK, sequence (Q9UM73 19-1620): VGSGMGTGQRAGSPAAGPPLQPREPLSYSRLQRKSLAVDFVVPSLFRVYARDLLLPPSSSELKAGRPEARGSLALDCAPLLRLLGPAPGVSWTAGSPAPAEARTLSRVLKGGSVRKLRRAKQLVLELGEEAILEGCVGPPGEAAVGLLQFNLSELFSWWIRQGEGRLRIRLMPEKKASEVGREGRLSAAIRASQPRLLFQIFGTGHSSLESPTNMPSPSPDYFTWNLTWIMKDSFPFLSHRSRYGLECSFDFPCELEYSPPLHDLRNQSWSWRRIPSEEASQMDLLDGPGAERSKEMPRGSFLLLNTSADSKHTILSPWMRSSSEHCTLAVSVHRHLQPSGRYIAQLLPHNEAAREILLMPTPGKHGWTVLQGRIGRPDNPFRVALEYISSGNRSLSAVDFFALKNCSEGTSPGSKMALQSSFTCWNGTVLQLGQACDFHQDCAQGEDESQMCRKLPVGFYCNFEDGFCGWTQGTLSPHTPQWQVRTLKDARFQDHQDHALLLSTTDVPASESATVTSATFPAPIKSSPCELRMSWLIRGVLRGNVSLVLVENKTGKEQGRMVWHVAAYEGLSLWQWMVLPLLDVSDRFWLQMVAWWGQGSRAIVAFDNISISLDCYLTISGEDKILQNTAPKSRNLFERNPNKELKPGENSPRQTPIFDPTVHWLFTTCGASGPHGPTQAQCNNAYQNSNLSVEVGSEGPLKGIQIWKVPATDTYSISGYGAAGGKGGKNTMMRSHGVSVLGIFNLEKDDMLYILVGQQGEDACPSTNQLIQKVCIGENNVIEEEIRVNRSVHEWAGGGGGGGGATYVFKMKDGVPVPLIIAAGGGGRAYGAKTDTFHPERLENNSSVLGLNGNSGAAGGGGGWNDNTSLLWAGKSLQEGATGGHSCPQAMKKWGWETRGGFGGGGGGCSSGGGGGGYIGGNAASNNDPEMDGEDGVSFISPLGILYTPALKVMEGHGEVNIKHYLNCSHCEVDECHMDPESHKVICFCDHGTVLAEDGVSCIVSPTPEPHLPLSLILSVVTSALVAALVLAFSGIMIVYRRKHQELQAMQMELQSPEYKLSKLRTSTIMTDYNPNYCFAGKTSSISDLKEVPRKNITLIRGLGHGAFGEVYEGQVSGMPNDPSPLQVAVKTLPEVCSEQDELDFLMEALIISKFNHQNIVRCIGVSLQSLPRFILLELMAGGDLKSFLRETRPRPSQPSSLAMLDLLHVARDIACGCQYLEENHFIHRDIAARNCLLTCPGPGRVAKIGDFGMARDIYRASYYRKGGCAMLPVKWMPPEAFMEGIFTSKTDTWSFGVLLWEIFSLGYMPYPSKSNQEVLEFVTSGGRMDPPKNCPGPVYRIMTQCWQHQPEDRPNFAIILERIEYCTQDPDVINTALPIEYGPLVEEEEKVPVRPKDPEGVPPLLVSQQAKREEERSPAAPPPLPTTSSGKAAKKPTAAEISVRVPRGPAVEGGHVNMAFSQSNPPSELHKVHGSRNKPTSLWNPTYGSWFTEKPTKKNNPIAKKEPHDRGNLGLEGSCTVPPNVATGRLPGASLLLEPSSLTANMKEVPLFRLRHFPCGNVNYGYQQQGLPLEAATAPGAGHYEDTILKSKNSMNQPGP
MELK, sequence (Q14680 whole entry): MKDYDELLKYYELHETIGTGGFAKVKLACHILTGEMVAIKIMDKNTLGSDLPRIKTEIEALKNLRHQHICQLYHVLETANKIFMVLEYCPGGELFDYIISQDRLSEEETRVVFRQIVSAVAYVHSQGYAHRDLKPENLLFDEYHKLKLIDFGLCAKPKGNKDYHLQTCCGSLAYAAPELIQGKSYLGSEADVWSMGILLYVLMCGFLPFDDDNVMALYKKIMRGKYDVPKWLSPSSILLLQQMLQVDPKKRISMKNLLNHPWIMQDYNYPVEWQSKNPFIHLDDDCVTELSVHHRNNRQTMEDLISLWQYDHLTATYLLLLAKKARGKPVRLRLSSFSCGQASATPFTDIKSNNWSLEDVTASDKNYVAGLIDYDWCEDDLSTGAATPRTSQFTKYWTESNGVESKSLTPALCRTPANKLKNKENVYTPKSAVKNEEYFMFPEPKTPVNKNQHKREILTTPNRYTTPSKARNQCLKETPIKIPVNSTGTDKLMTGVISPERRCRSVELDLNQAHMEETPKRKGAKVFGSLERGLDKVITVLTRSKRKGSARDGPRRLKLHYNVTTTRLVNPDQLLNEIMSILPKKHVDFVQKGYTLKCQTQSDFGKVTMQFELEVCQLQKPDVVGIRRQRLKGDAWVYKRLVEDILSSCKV
PKCbeta, sequence (P05771 whole entry): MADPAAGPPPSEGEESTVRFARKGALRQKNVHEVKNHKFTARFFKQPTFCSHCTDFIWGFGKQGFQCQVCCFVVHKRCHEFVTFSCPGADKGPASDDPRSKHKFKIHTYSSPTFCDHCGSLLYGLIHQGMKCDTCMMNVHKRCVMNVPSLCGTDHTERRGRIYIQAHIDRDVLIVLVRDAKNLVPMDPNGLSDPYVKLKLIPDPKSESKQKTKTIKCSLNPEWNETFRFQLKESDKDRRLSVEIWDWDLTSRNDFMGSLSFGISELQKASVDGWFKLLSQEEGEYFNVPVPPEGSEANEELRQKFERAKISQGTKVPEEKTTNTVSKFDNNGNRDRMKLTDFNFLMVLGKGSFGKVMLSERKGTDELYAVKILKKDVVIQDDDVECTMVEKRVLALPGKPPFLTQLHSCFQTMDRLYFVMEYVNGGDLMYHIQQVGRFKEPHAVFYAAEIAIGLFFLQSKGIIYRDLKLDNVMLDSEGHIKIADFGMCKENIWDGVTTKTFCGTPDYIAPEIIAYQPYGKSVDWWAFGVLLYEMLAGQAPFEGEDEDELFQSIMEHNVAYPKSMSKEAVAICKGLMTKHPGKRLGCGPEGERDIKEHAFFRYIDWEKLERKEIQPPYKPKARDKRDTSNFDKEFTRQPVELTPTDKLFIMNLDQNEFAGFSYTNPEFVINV

Row | IC50 [1] [µM] | IC50 [2] [µM] | IC50 [3] [µM] | IC50 [4] [µM] | IC50 [5] [µM] | IC50 [8] | IC50 [9] [µM] | IC50 [10] [µM] | IC50 [12] [µM] | Structure (SMILES) | also measured
1 | 1.83 | 3.15 | – | – | – | – | – | – | – | CCS(=O)(=O)Nc1n[nH]c2c1CCCn1cc(C(=O)NCCOC)cc1-2 [Example A42-M2-B33] | –
2 | – | – | 4.68 | 0.59 | 1.31 | 1.01 µM | 0.54 | 3.4 | – | O=C(NCCN1CCCC1)c1cc2n(c1)CCc1c(NC(=O)c3ccccc3Cl)n[nH]c1-2 [Example A5-M1-B43] | IC50 [6]: 7.27 µM; IC50 [7]: 7.87 µM
3 | – | – | 0.86 | 3.99 | 4.13 | 0.36 µM | 0.82 | 5.81 | – | O=C(Nc1n[nH]c2c1CCn1cc(C(=O)N3CCC(N4CCCCC4)CC3)cc1-2)c1ccccc1Cl [Example A5-M1-B34] | IC50 [11]: 4.94 µM
4 | 0.59 | 2.1 | – | – | – | – | – | – | 2.57 | Cc1ccc(C(=O)Nc2n[nH]c3c2CCCn2cc(C(=O)N4CCCC4)cc2-3)cc1F [Example A30-M2-B8] | –
5 | – | – | 4.35 | 3.5 | – | 1.08 µM and 1.58 µM | 4.31 | 4.91 | – | Cc1ccc(C(=O)Nc2n[nH]c3c2CCn2cc(C(=O)N4CCC(N5CCCCC5)CC4)cc2-3)c(C)c1 [Example A35-M1-B34] | IC50 [6]: 5.76 µM; IC50 [13]: 4.17 µM; IC50 [11]: 3.98 µM
6 | 1.56 | – | – | – | – | – | – | – | – | O=C(NCc1ccncc1)c1cc2n(c1)CCCc1c(NC(=O)c3ccccc3)n[nH]c1-2 [Example A1-M2-B25] | –
7 | 0.72 | 0.48 | – | – | – | 1.44 µM | – | – | 1.23 | CC(C)(C)C(=O)Nc1n[nH]c2c1CCCn1cc(C(=O)N3CCC(N4CCCCC4)CC3)cc1-2 [Example A33-M2-B34] | –
8 | 0.8 | 1.63 | – | – | – | – | – | – | 3.09 | O=C(Nc1n[nH]c2c1CCCn1cc(C(=O)NC3CCCC3)cc1-2)c1cccnc1 [Example A32-M2-B28] | –
9 | – | – | – | – | 3.52 | 0.49 µM and 0.3 µM | 3.5 | – | – | Cc1ccc(C(=O)Nc2n[nH]c3c2CCn2cc(C(=O)N4CCCC4)cc2-3)c(C)c1 [Example A35-M1-B8, 2,4-dimethyl-N-[8-(pyrrolidin-1-ylcarbonyl)-4,5-dihydro-1H-pyrazolo[4,3-g]indolizin-3-yl]benzamide] | IC50 [14]: 2.13 µM
10 | 1.15 | 2.78 | – | – | – | – | – | – | 3 | CCN1CCN(C(=O)c2cc3n(c2)CCCc2c(NC(=O)c4cc(C)cc(C)c4)n[nH]c2-3)CC1 [Example A24-M2-B37] | –
